These results are taken from ChEMBL document CHEMBL5352403, “Monoamine oxidase inhibitors: A concise review with special emphasis on structure activity relationship studies” (Eur J Med Chem, 2022).

The target in assay [1] is T1, Amine oxidase [flavin-containing] B (Homo sapiens, UniProt P27338).
T1 sequence (P27338 whole entry): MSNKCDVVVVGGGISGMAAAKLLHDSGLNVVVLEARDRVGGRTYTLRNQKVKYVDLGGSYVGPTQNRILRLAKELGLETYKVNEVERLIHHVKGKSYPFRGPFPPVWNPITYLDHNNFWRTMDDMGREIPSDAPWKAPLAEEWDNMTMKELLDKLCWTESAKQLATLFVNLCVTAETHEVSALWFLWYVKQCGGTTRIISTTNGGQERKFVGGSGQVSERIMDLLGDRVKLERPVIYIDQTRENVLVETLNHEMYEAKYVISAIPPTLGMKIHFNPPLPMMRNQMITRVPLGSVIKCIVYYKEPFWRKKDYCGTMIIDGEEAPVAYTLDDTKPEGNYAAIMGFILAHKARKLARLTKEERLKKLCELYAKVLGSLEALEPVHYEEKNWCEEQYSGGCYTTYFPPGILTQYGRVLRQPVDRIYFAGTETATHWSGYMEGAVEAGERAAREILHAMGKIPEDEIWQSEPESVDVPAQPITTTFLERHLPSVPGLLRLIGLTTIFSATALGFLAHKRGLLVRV
The assay is described as follows: Inhibition of recombinant human MAO-B expressed in baculovirus infected BTI insect cells using p-tyramine as substrate incubated for 15 mins by Amplex Red reagent and horseradish peroxidase based fluorometric analysis.

Assay [2] addresses T2, Amine oxidase [flavin-containing] A (Homo sapiens, UniProt P21397).
T2 sequence (P21397 whole entry): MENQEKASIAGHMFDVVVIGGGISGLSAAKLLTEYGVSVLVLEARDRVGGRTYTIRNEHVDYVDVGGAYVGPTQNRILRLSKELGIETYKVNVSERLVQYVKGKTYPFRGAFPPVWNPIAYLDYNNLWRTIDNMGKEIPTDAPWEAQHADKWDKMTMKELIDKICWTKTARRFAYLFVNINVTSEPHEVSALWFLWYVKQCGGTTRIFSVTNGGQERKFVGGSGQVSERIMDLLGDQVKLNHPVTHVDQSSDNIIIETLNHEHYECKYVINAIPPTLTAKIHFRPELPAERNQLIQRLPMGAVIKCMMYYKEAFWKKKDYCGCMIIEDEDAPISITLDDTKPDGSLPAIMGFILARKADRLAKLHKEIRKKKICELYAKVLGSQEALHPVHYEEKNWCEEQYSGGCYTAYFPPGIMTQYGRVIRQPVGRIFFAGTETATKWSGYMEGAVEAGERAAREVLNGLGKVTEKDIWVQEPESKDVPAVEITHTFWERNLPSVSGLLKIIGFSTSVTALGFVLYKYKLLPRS
The assay is described as follows: Inhibition of recombinant human MAO-A using p-tyramine as substrate incubated for 45 mins by Amplex Red reagent and horseradish peroxidase based fluorescence microplate reader analysis.

The target in assay [3] is T3, Amine oxidase [flavin-containing] B (Rattus norvegicus, UniProt P19643).
T3 sequence (P19643 whole entry): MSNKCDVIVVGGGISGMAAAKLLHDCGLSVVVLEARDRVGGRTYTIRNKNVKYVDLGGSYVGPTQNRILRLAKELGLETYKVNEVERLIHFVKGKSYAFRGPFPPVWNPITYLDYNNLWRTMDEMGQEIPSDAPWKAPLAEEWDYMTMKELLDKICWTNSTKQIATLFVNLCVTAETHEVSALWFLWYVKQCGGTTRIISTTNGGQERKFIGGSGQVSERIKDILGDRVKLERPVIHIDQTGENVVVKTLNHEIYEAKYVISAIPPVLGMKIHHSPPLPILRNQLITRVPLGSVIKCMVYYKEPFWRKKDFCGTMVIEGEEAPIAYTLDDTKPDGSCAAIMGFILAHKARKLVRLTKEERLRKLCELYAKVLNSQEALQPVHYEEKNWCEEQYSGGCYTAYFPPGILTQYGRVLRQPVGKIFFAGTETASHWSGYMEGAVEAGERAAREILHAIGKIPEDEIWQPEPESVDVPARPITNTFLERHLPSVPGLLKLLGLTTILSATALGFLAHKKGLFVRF
The assay is described as follows: Inhibition of rat brain mitochondria MAO-B using benzylamine as substrate incubated for 30 mins by fluorescence microplate reader analysis.

Assay [4] has as its target T2, Amine oxidase [flavin-containing] A. As to the kind of experiment: Inhibition of recombinant human MAO-A using kynuramine as substrate incubated for 30 mins by spectrophotometric assay.
Assay [5] addresses T1, Amine oxidase [flavin-containing] B. The assay is described as follows: Inhibition of recombinant human MAO-B using benzylamine as substrate incubated for 15 mins by spectrophotometric assay.
For assay [6] the target is unchanged. The assay is described as follows: Inhibition of recombinant human MAO-B using kynuramine as substrate assessed as inhibition constant incubated for 20 mins by spectrophotometric assay.
Assay [7] has the same target. The assay is described as follows: Inhibition of recombinant human MAO-B using kynuramine as substrate incubated for 30 mins by fluorimetric analysis.
The target in assay [8] is T2, Amine oxidase [flavin-containing] A. As to the kind of experiment: Inhibition of recombinant human MAO-A using kynuramine as substrate incubated for 30 mins by fluorimetric analysis.
The target of assay [9] is T1, Amine oxidase [flavin-containing] B. As to the kind of experiment: Reversible inhibition of recombinant human MAO-B assessed as inhibition constant incubated for 30 mins by dilution assay.
The target in assay [10] is T2, Amine oxidase [flavin-containing] A. The assay is described as follows: Inhibition of recombinant human MAO-A expressed in baculovirus infected BTI-TN-5B1-4 insect cells using p-tyramine as substrate incubated for 15 mins by Amplex Red reagent and horseradish peroxidase based fluorometric analysis.

What is called IC50 is the concentration that gives 50% inhibition. `Cc1cccc(NC(=S)N2N=C(c3ccc(O)cc3)CC2c2cccs2)c1` (stereo not given): the half-maximal inhibitory concentration (IC50) in assay [1] is 200 nM. Regarding `CC(C)(C)c1ccc(S(=O)(=O)N2CCN(C(c3ccccc3)c3ccccc3)CC2)cc1`, the IC50 in [2] came out at 120 nM. Take `CCc1ccc(/C=C/C(=O)c2ccc3c(c2)OCO3)cc1`: the half-inhibitory concentration (IC50) is 212 nM in assay [3] and 29 nM in assay [4]. On to `CSc1ccc(C(=O)/C=C/c2cccc3c2OCO3)cc1`, for which the IC50 in [5] was determined as 650 nM. Broadly, the Ki is a dissociation constant, usually derived from enzyme kinetics or from competition with a known ligand. `CC1=NN(C(=O)CN2CCNCC2)C(c2cc(Br)cc(Br)c2O)C1` (stereo not given): the Ki in assay [6] was 280 nM. For the compound `O=C(/C=C/C=C/c1ccccc1)c1ccco1`, the concentration for half-maximal inhibition (IC50) in assay [7] was found to be 2950 nM; in assay [8], 17000 nM. For the same compound, the Ki in [9] was 4 nM.

`O=[N+]([O-])c1cccc2cc(-c3ccccc3)oc12`: the concentration for half-maximal inhibition (IC50) in assay [10] came out at 168 nM.
